In the experiment the test system is IL-2 production. Description: Inhibition of IL-2 production in PHA-activated Jurkat cells (ELISA). In kind it is cell-based. Particulars: Homo sapiens, PHA 2.5 μg/mL, 20 hours at 37° C., IL-2 ELISA. How it is done: Jurkat cells were placed in a 96 well plate (0.5 million cells per well in 1% FBS medium) then a test compound of this invention was added at different concentrations. After 10 minutes, the cells were activated with PHA (final concentration 2.5 μg/mL) and incubated for 20 hours at 37° C. under CO2. The final volume was 200 μL. Following incubation, the cells were centrifuged and the supernatants collected and stored at −70° C. prior to assaying for IL-2 production. A commercial ELISA kit (IL-2 Eli-pair, Diaclone Research, Besancon, France) was used to detect production of IL-2, from which dose response curves were obtained. The IC50 value was calculated as the concentration at which 50% of maximum IL-2 production after stimulation was inhibited versus a non-stimulation control.

pIC50: −log10 of the molar value. Where a name gives a salt, the structure may show the parent alone.

This is an account of results in patent US8349841B2, “Vinyl-aryl derivatives for inflammation and immune-related uses” (Synta Pharmaceuticals Corp., priority 2007, dated 2013).

With `CC1=C(c2ccc(NC(=O)c3c(F)cccc3F)nc2)CN(C(=O)c2ccccn2)CC1` [Compound 4, 2,6-difluoro-N-(5-(4-methyl-1-picolinoyl-1,2,5,6-tetrahydropyridin-3-yl)pyridin-2-yl)benzamide hydrochloride], the negative-log IC50 (pIC50) was 6.03.
To `CCOC(=O)N1CCC(Cl)=C(c2ccc(NC(=O)c3c(F)cccc3F)cc2)C1` [Compound 6, ethyl 4-chloro-3-(4-(2,6-difluorobenzamido)phenyl)-5,6-dihydropyridine-1(2H)-carboxylate] belongs 7.18; to `CCOC(=O)N1CCC(C)=C(c2ccc(NC(=O)c3c(F)cccc3F)nc2)C1` [Compound 1, ethyl 3-(6-(2,6-difluorobenzamido)pyridin-3-yl)-4-methyl-5,6-dihydropyridine-1(2H)-carboxylate], 7.52; to `CCOC(=O)N1CCC(c2ccc(NC(=O)c3c(F)cccc3F)cc2)=C(COC(C)=O)C1` [Compound 5, ethyl 3-(acetoxymethyl)-4-(4-(2,6-difluorobenzamido)phenyl)-5,6-dihydropyridine-1(2H)-carboxylate], less than 6.00.
On to `C=CCOC(=O)N1CCC(c2ccc(NC(=O)c3c(F)cccc3F)cc2)=C(COC(C)=O)C1` [Compound 3, allyl 3-(acetoxymethyl)-4-(4-(2,6-difluorobenzamido)phenyl)-5,6-dihydropyridine-1(2H)-carboxylate], for which the negative logarithm of the IC50 (pIC50) is less than 6.00.
To `CC1=C(c2cnc(NC(=O)c3c(F)cccc3F)cn2)CN(c2ncccn2)CC1` [Compound 2, 2,6-difluoro-N-(5-(4-methyl-1-(pyrimidin-2-yl)-1,2,5,6-tetrahydropyridin-3-yl)pyrazin-2-yl)benzamide hydrochloride] belongs 7.42.
